In US10336701B2, “Pyridin-2-one derivatives of formula (II) useful as EP3 receptor antagonists” (Janssen Pharmaceutica NV, priority 2017, dated 2019):

How the values were obtained:
EP3 receptor [1] = target: T1, EP3 receptor (Homo sapiens, UniProt P43115); assay: [3H]-PGE2 binding assay (EP3 competition binding); conditions: read-out: [3H]-PGE2 Binding Ki
T1 construct: purchased Millipore HTS092M
T1 sequence (P43115 1-390): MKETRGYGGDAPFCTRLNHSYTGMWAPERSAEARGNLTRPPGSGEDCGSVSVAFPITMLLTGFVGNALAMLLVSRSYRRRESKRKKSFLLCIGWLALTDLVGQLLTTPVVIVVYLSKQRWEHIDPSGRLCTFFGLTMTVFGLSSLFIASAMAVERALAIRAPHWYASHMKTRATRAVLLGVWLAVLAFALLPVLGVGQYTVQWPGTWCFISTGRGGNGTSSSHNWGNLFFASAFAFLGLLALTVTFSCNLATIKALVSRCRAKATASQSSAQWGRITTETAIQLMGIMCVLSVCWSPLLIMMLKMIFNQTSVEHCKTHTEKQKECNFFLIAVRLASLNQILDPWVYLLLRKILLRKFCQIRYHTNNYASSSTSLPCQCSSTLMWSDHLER
How it was run: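 Scintillation-bead competition binding with EP3 membranes (2 μg/well), 2 nM [3H]-PGE2, 0.1% DMSO, in 50 mM Tris, 10 mM MgCl2, 1 mM EDTA, pH 7.4.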

EP3 receptor [2] = target: T1, EP3 receptor; assay: CHO cell cAMP assay (forskolin and sulprostone stimulated, HTRF); assay type: cell-based; conditions: CHO cells; sulprostone 700 nM (EC80) and FSK 2 μM (EC70), 37° C. for 30 minutes; read-out: CHO_cAMP IC50

Compound	Ki (EP3 receptor [1])	IC50 (EP3 receptor [2])
O=c1[nH]c(-c2ccc3ccccc3c2)ccc1C1CCOCC1 [compound 192, 6-(naphthalen-2-yl)-3-(tetrahydro-2H-pyran-4-yl)pyridin-2(1H)-one]	0.06 µM	1.33 µM
CC(C)C(/C=C1\OC(=O)NC1=O)c1ccc(-c2ccc3c(c2)N(C)CCO3)[nH]c1=O (centres unmarked) [compound 108, (Z)-5-(3-methyl-2-(6-(4-methyl-3,4-dihydro-2H-benzo[b][1,4]oxazin-6-yl)-2-oxo-1,2-dihydropyridin-3-yl)butylidene)oxazolidine-2,4-dione]	0.171 µM	0.602 µM
CC1(c2ccc(-c3ccc4ccccc4c3)[nH]c2=O)C(=O)Nc2nccn21 (centres unmarked) [compound 153, 3-methyl-3-(6-(naphthalen-2-yl)-2-oxo-1,2-dihydropyridin-3-yl)-1H-imidazo[1,2-a]imidazol-2(3H)-one]	0.043 µM	0.4 µM
CCN1CCOc2ccc(-c3ccc(C(c4noc(=O)[nH]4)C(C)C)c(=O)[nH]3)cc21 (centres unmarked) [Compound #278, 3-(1-(6-(4-ethyl-3,4-dihydro-2H-benzo[b][1,4]oxazin-6-yl)-2-oxo-1,2-dihydropyridin-3-yl)-2-methylpropyl)-1,2,4-oxadiazol-5(4H)-one]	0.368 µM	0.591 µM
CCn1ncc2c(C)cc(-c3ccc(C(/C=C4\OC(=O)NC4=O)C(C)C)c(=O)[nH]3)cc21 (centres unmarked) [compound 106, (Z)-5-(2-(6-(1-ethyl-4-methyl-1H-indazol-6-yl)-2-oxo-1,2-dihydropyridin-3-yl)-3-methylbutylidene)oxazolidine-2,4-dione]	0.05 µM	0.555 µM
CCn1ncc2c(F)cc(-c3ccc(C(c4noc(=O)[nH]4)C(C)C)c(=O)[nH]3)cc21 (centres unmarked) [Compound #277, 3-(1-(6-(1-ethyl-4-fluoro-1H-indazol-6-yl)-2-oxo-1,2-dihydropyridin-3-yl)-2-methylpropyl)-1,2,4-oxadiazol-5(4H)-one]	0.107 µM	0.548 µM
CCS(=O)(=O)N1CCC(c2ccc(-c3ccc4ccccc4c3)[nH]c2=O)CC1 [compound 190, 3-(1-(ethylsulfonyl)piperidin-4-yl)-6-(naphthalen-2-yl)pyridin-2(1H)-one]	0.032 µM	0.614 µM
CC1(c2ccc(-c3ccc4ccccc4c3)[nH]c2=O)Cn2cnnc2N1 (centres unmarked) [compound 167, 3-[6-methyl-5H,6H,7H-imidazo[2,1-c][1,2,4]triazol-6-yl]-6-(naphthalen-2-yl)-1,2-dihydropyridin-2-one]	0.151 µM	0.779 µM
CC(C)C(C(=O)NS(=O)(=O)c1cc(Cl)c(Cl)s1)c1ccc(-c2ccc3cccc(F)c3c2)[nH]c1=O (centres unmarked) [compound 175, N-(4,5-dichlorothiophen-2-ylsulfonyl)-2-(6-(8-fluoronaphthalen-2-yl)-2-oxo-1,2-dihydropyridin-3-yl)-3-methylbutanamide]	0.11 µM	0.171 µM

The next lines start with the values.

Ki (EP3 receptor [1])	IC50 (EP3 receptor [2])	Compound
0.005 µM	0.037 µM	CCn1ncc2c(F)cc(-c3ccc(C4CCCN(S(=O)(=O)C(C)C)C4)c(=O)[nH]3)cc21 (centres unmarked) [compound 211, 6-(1-ethyl-4-fluoro-1H-indazol-6-yl)-3-(1-(isopropylsulfonyl)piperidin-3-yl)pyridin-2(1H)-one]
2.6 µM	14 µM	CC(C)C(C(=O)NCCN(C)C)c1ccc(-c2ccc3scnc3c2)[nH]c1=O (centres unmarked) [compound 243, 2-(6-(benzo[d]thiazol-5-yl)-2-oxo-1,2-dihydropyridin-3-yl)-N-(2-(dimethylamino)ethyl)-3-methylbutanamide]
0.009 µM	0.115 µM	CC(C)C(O)(CC(N)=O)c1ccc(-c2ccc3cccc(F)c3c2)[nH]c1=O (centres unmarked) [compound 255, 3-(6-(8-fluoronaphthalen-2-yl)-2-oxo-1,2-dihydropyridin-3-yl)-3-hydroxy-4-methylpentanamide]
0.116 µM	1.91 µM	CC1(c2ccc(-c3ccc4ccccc4c3)[nH]c2=O)CNC(NS(C)(=O)=O)=N1 (centres unmarked) [compound 290, N-[4-methyl-4-[6-(naphthalen-2-yl)-2-oxo-1,2-dihydropyridin-3-yl]-4,5-dihydro-1H-imidazol-2-yl]methanesulfonamide]
